Results taken from patent US20240269298A1, “PHOSPHONYL DERIVATIVE, AND COMPOSITION AND PHARMACEUTICAL APPLICATION THEREOF” (XIZANG HAISCO PHARMACEUTICAL CO., LTD., priority 2021, published 2024).
pIC50: −log10 of the molar value. Where two headings read alike, the source gives them in different places.

Key:
[1] = tested on: NCI-H1975 (EGFR-L858R-T790M) cells; assay: Inhibitory activity on proliferation of NCI-H1975 (EGFR-L858R-T790M) cells (CTG, 72 h); format: cell-based; conditions: Homo sapiens
In short: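 Cells plated at 1000/well (NCI-H1975, RPMI1640+10% FBS) or 3000/well (A431, DMEM+10% FBS), dosed next day with compounds (0.1% DMSO final) for 72 h at 37 °C, 5% CO2. Viability by CTG luminescence, normalised to vehicle control; IC50 from nonlinear-regression dose-survival curves.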

[2] = tested on: A431 (EGFR-WT) cells; assay: Inhibitory activity on proliferation of A431 (EGFR-WT) cells (CTG, 72 h); format: cell-based; conditions: Homo sapiens, A-431
Description: NCI-H1975 (EGFR-L858R-T790M) and A431 (EGFR-WT) cells were purchased from ATCC and cultured in an incubator at 37° C. with 5% CO2, and the culture mediums were RPMI1640+10% FBS and DMEM+10% FBS, respectively. On the first day, NCI-H1975 (EGFR-L858R-T790M) and A431 (EGFR-WT) cells in the logarithmic phase were collected, and viable cells were counted using an automatic cell analyzer (countstar). The cell suspensions were adjusted with the culture mediums and plated on a 96-well cell culture plate at 1000 cells/well for NCI-H1975 (EGFR-L858R-T790M) cells and at 3000 cells/well for A431 cells. The next day, the culture mediums were aspirated, and 90 μL of fresh culture mediums and 10 μL of the compounds at different concentrations were added to each well, wherein the final concentration of DMSO in each well was 0.1%. The plate was cultured in the incubator at 37° C. with 5% CO2 for 72 hours. After 72 hours of drug treatment, 50 μL of CTG solution (promega, G7572), which was already pre-melted and equilibrated to room temperature, was added to each well, and the mixtures were uniformly mixed for 2 min using a microplate shaker. The plate was placed at room temperature for 10 min, and then […] signal values were measured using a microplate reader (PHERAstar FSX).
Surviving cells % was calculated based on Vsample/Vvehicle control×100%, wherein Vsample was the readout of the drug-treated group, and Vvehicle control was the average value of the vehicle control group. Using the origin 9.2 software and nonlinear regression model, S-shaped dose-survival curves were plotted, and IC50 values were calculated.

[3] = read-out: IC50 (value in brackets)

Structure (SMILES)	pIC50 ([1]; read-out: IC50 (class symbol))	pIC50 [1, 3]	pIC50 [2]
COc1cc(N2CCC(N3CCN(CC4CCN(c5ccc6c(c5)C(=O)N(C5CCC(=O)NC5=O)C6=O)C4)CC3)CC2)c(-c2cnn(C)c2)cc1Nc1ncc(Br)c(Nc2ccc3nccnc3c2P(C)(C)=O)n1 (stereo not drawn) [Compound 30, 5-(3-((4-(1-(4-((5-bromo-4-((5-(dimethylphosphoryl)quinoxalin-6-yl)amino)pyrimidin-2-yl)amino)-5-methoxy-2-(1-methyl-1H-pyrazol-4-yl)phenyl)piperidin-4-yl)piperazin-1-yl)methyl)pyrrolidin-1l-yl)-2-(2,6-dioxopiperidin-3-yl)isoindoline-1,3-dione]	> 7.00	7.92	≤ 5.00
COc1cc(N2CCC(C3CCN(CC4CCN(c5ccc6c(c5)C(=O)N(C5CCC(=O)NC5=O)C6=O)CC4)CC3)CC2)c(-c2cnn(C)c2)cc1Nc1ncc(Br)c(Nc2ccc(-c3ccccc3)cc2P(C)(C)=O)n1 (stereo not drawn) [Compound 36, 5-(4-((1′-(4-((5-bromo-4-((3-(dimethylphosphoryl)-[1,1′-biphenyl]-4-yl)amino)pyrimidin-2-yl)amino)-5-methoxy-2-(1-methyl-1H-pyrazol-4-yl)phenyl)-[4,4′-bipiperidin]-1-yl)methyl)piperidin-1-yl)-2-(2,6-dioxopiperidin-3-yl)isoindoline-1,3-dione]	6.30 to 7.00	6.78	≤ 5.00
COc1cc(N2CCN(C3CCN(CC4CCN(c5ccc6c(c5)C(=O)N(C5CCC(=O)NC5=O)C6=O)CC4)CC3)CC2)c(-c2cnn(C)c2)cc1Nc1ncc(Cl)c(Nc2ccc(-c3ccccc3)cc2P(C)(C)=O)n1 (stereo not drawn) [Compound 40, 5-(4-((4-(4-(4-((5-chloro-4-((3-(dimethylphosphoryl)-[1,1′-biphenyl]-4-yl)amino)pyrimidin-2-yl)amino)-5-methoxy-2-(1-methyl-1H-pyrazol-4-yl)phenyl)piperazin-1-yl)piperidin-1-yl)methyl)piperidin-1-yl)-2-(2,6-dioxopiperidin-3-yl)isoindoline-1,3-dione]	> 7.00	7.26	≤ 5.00
COc1cc(N2CCN(C3CCN(CC4CCN(c5ccc6c(c5)C(=O)N(C5CCC(=O)NC5=O)C6=O)CC4)CC3)CC2)c(-c2cnn(C)c2)cc1Nc1ncc(Br)c(Nc2ccc(-c3ccccc3)cc2P(C)(C)=O)n1 (stereo not drawn) [Compound 42, 5-(4-((4-(4-(4-((5-bromo-4-((3-(dimethylphosphoryl)-[1,1′-biphenyl]-4-yl)amino)pyrimidin-2-yl)amino)-5-methoxy-2-(1-methyl-1H-pyrazol-4-yl)phenyl)piperazin-1-yl)piperidin-1-yl)methyl)piperidin-1-yl)-2-(2,6-dioxopiperidin-3-yl)isoindoline-1,3-dione]	> 7.00	7.23	≤ 5.00
COc1cc(N2CCC(CN3CCC4(CCCN(c5cc6c(cc5F)C(=O)N(C5CCC(=O)NC5=O)C6=O)C4)CC3)CC2)c(-c2cnn(C)c2)cc1Nc1ncc(Br)c(Nc2ccc(-c3ccccc3)cc2P(C)(C)=O)n1 (stereo not drawn) [Compound 61, 5-(9-((1-(4-((5-bromo-4-((3-(dimethylphosphoryl)-[1,1′-biphenyl]-4-yl)amino)pyrimidin-2-yl)amino)-5-methoxy-2-(1-methyl-1H-pyrazol-4-yl)phenyl)piperidin-4-yl)methyl)-2,9-diazaspiro[5.5]undecan-2-yl)-2-(2,6-dioxopiperidin-3-yl)-6-fluoroisoindoline-1,3-dione]	6.30 to 7.00	6.75	≤ 5.00
COc1cc(N2CCC(CN3CC4CN(c5ccc6c(c5)C(=O)N(C5CCC(=O)NC5=O)C6=O)CC4C3)CC2)c(-c2cnn(C)c2)cc1Nc1ncc(Br)c(Nc2ccc(-c3ccccc3)cc2P(C)(C)=O)n1 (stereo not drawn) [Compound 78, 5-(5-((1-(4-((5-bromo-4-((3-(dimethylphosphoryl)-[1,1′-biphenyl]-4-yl)amino)pyrimidin-2-yl)amino)-5-methoxy-2-(1-methyl-1H-pyrazol-4-yl)phenyl)piperidin-4-yl)methyl)hexahydropyrrolo[3,4-c]pyrrol-2(1H)-yl)-2-(2,6-dioxopiperidin-3-yl)isoindoline-1,3-dione]	> 7.00	7.29	≤ 5.00

Now from value to molecule:

pIC50 ([1]; read-out: IC50 (class symbol))	pIC50 [1, 3]	pIC50 [2]	Structure (SMILES)
6.30 to 7.00	6.79	≤ 5.00	COc1cc(N2CCC(N3CCC(CN4CCN(c5ccc6c(c5)C(=O)N(C5CCC(=O)NC5=O)C6=O)CC4)CC3)CC2)c(C2CC2)cc1Nc1ncc(Br)c(Nc2ccc3nccnc3c2P(C)(C)=O)n1 (stereo not drawn) [Compound 24, 5-(4-((1′-(4-((5-bromo-4-((5-(dimethylphosphoryl)quinoxalin-6-yl)amino)pyrimidin-2-yl)amino)-2-cyclopropyl-5-methoxyphenyl)-[1,4′-bipiperidin]-4-yl)methyl)piperazin-1-yl)-2-(2,6-dioxopiperidin-3-yl)isoindoline-1,3-dione]
6.30 to 7.00	6.94	≤ 5.00	COc1cc(N2CCC(N3CCN(CC4CCN(c5ccc6c(c5)C(=O)N(C5CCC(=O)NC5=O)C6=O)C4)CC3)CC2)c(C2CC2)cc1Nc1ncc(Br)c(Nc2ccc3nccnc3c2P(C)(C)=O)n1 (stereo not drawn) [Compound 35, 5-(3-((4-(1-(4-((5-bromo-4-((5-(dimethylphosphoryl)quinoxalin-6-yl)amino)pyrimidin-2-yl)amino)-2-cyclopropyl-5-methoxyphenyl)piperidin-4-yl)piperazin-1-yl)methyl)pyrrolidin-1-yl)-2-(2,6-dioxopiperidin-3-yl)isoindoline-1,3-dione]
6.30 to 7.00	6.45	≤ 5.00	COc1cc(N2CCC(C3CCN(CC4CCN(c5ccc6c(c5)C(=O)N(C5CCC(=O)NC5=O)C6=O)CC4)CC3)CC2)c(-c2cnn(C)c2)cc1Nc1ncc(Cl)c(Nc2ccc(-c3ccccc3)cc2P(C)(C)=O)n1 (stereo not drawn) [Compound 41, 5-(4-((1′-(4-((5-chloro-4-((3-(dimethylphosphoryl)-[1,1′-biphenyl]-4-yl)amino)pyrimidin-2-yl)amino)-5-methoxy-2-(1-methyl-1H-pyrazol-4-yl)phenyl)-[4,4′-bipiperidin]-1-yl)methyl)piperidin-1-yl)-2-(2,6-dioxopiperidin-3-yl)isoindoline-1,3-dione]
> 7.00	7.15	≤ 5.00	COc1cc(N2CCN(C3CCN(CC4CCN(c5cc6c(cc5F)C(=O)N(C5CCC(=O)NC5=O)C6=O)CC4)CC3)CC2)c(-c2cnn(C)c2)cc1Nc1ncc(Br)c(Nc2ccc(-c3ccccc3)cc2P(C)(C)=O)n1 (stereo not drawn) [Compound 46, 5-(4-((4-(4-(4-((5-bromo-4-((3-(dimethylphosphoryl)-[1,1′-biphenyl]-4-yl)amino)pyrimidin-2-yl)amino)-5-methoxy-2-(1-methyl-1H-pyrazol-4-yl)phenyl)piperazin-1-yl)piperidin-1-yl)methyl)piperidin-1-yl)-2-(2,6-dioxopiperidin-3-yl)-6-fluoroisoindoline-1,3-dione]
6.30 to 7.00	6.88	≤ 5.00	COc1cc(N2CCN(C3CCN(CC4CCN(c5cc6c(cc5F)C(=O)N(C5CCC(=O)NC5=O)C6=O)CC4)CC3)CC2)c(-c2cnn(C)c2)cc1Nc1ncc(Cl)c(Nc2ccc(-c3ccccc3)cc2P(C)(C)=O)n1 (stereo not drawn) [Compound 50, 5-(4-((4-(4-(4-((5-chloro-4-((3-(dimethylphosphoryl)-[1,1′-biphenyl]-4-yl)amino)pyrimidin-2-yl)amino)-5-methoxy-2-(1-methyl-1H-pyrazol-4-yl)phenyl)piperazin-1-yl)piperidin-1-yl)methyl)piperidin-1-yl)-2-(2,6-dioxopiperidin-3-yl)-6-fluoroisoindoline-1,3-dione]
> 7.00	7.00	≤ 5.00	COc1cc(N2CCC(CN3CCN(c4ccc(C(=O)NC5CCC(=O)NC5=O)nc4)CC3)CC2)c(-c2cnn(C)c2)cc1Nc1ncc(Cl)c(Nc2ccc(-c3ccccc3)cc2P(C)(C)=O)n1 (stereo not drawn) [Compound 66, 5-(4-((1-(4-((5-chloro-4-((3-(dimethylphosphoryl)-[1,1′-biphenyl]-4-yl)amino)pyrimidin-2-yl)amino)-5-methoxy-2-(1-methyl-1H-pyrazol-4-yl)phenyl)piperidin-4-yl)methyl)piperazin-1-yl)-N-(2,6-dioxopiperidin-3-yl)picolinamide]
6.30 to 7.00	6.50	≤ 5.00	COc1cc(N2CCC3(CCN(c4ccc5c(c4)C(=O)N(C4CCC(=O)NC4=O)C5=O)CC3)CC2)c(-c2cnn(C)c2)cc1Nc1ncc(Br)c(Nc2ccc(-c3ccccc3)cc2P(C)(C)=O)n1 (stereo not drawn) [Compound 79, 5-(9-(4-((5-bromo-4-((3-(dimethylphosphoryl)-[1,1′-biphenyl]-4-yl)amino)pyrimidin-2-yl)amino)-5-methoxy-2-(1-methyl-1H-pyrazol-4-yl)phenyl)-3,9-diazaspiro[5.5]undecan-3-yl)-2-(2,6-dioxopiperidin-3-yl)isoindoline-1,3-dione]
